Columns and labels:
thromboxane synthetase = biological target: T1, thromboxane synthetase (Homo sapiens, UniProt P24557); assay: Thromboxane production in Human Platelet Rich Plasma (collagen-stimulated, TxB2 radioimmunoassay); assay type: cell-based; details: 10 min. incubation, collagen 20 μg/ml, 37° C., read-out: ACTIVITY (IC50 × 10^6 M), inhibition of collagen-induced TxB2 generation
T1 construct: The citrated blood was centrifuged at 160 g for 10 mins. at 22° C. to obtain platelet rich plasma (prp); endogenous in cells; host or cells: human platelets in citrated platelet rich plasma from healthy male donors
T1 sequence (P24557 1-533): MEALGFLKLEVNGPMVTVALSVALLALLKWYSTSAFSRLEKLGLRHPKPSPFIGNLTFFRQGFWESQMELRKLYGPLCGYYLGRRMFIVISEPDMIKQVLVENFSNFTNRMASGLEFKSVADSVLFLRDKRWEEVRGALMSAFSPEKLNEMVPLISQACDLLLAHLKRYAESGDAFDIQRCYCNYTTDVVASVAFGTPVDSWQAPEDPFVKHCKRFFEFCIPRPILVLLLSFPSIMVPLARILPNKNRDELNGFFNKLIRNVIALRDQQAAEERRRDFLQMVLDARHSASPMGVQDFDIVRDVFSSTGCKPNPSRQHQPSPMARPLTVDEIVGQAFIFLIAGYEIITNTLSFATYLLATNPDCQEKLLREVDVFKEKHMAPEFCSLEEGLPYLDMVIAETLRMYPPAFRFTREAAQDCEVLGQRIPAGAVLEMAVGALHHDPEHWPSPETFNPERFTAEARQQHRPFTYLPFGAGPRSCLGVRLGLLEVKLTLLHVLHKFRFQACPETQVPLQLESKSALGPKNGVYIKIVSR
Experimental: (i) inhibition of the generation of thromboxane A2 as determined by radioimmunoassay of its stable metabolite, thromboxane B2 (New England Nuclear, Thromboxane B2 [^3 H] RIA kit, Catalogue No. NEK 007); and
Various compounds of the present invention were evaluated utilizing an in vitro radioimmunoassay as described in the following Example in order to determine inhibition of thromboxane production.
Thromboxane production in Human Platelet Rich Plasma
(a) Platelet rich plasma (prp) preparation
Human venous blood was collected from healthy male donors, who had denied any medication during the previous 14 days. Nine volumes of blood were mixed with one volume of 3.24% trisodium citrate. The citrated blood was centrifuged at 160 g for 10 mins. at 22° C. to obtain platelet rich plasma (prp). The platelets were then counted on a Coulter counter, and the platelet count was adjusted to 200,000 per μl with plasma.
(b) Thromboxane generation
The prp was then dispensed as aliquots into micro-Eppendorf tubes, maintained at 37° C. in a dry bath. The compound to be evaluated was dissolved either in saline, ethanol, or dimethylsulphoxide, and added in duplicate to the prp aliquots to produce a final concentration in the range of 0.1-30 μg/ml. When ethanol or dimethylsulphoxide was used to dissolve the compound, triplicate controls containing the same percentage of ethanol or dimethyl sulphoxide as the test compound was made. The final concentration of organic solvent was never greater than 0.1%, which has been determined to have no effect on TxB2 generation.
Following a 10 min. incubation withtest compounds or controls, collagen was added to the tubes containing the test compounds to produce a final concentration of 20 μg/ml. The tubes were then whirly-mixed for 15 seconds and replaced in the dry bath for a further 10 minutes. Saline was added to the tubes containing the controls, in lieu of collagen. The reaction was then stopped by rapid centrifugation (15000 g for 3 mins). The plasma was removed and frozen at -29° C. until assayed.
(c) Assay of Thromboxane B2
Aliquots (100 μl) of thromboxane TxB2 (plasma extract or standards 50 to 10,000 pg/ml), [^3 H]-TxB2 (approximately 15,000 dpm) and anti-TxB2 antiserum (0.5 μg/100 μl) were combined in […] phosphate buffer+0.1% gelatin+thimerosal (pH 6.8) were incubated for 16 hours at 4° C. The free and protein bound [^3 H]-TxB2 were separated by absorption onto activated charcoal followed by centrifugation. 1.0 ml of the supernatant was added to an aqueous scintillation fluid, and the radioactivity present was counted in a liquid scintillation counter. The binding of [^3 H]-TxB2 in the absence of added TxB2 was approximately 55%. The minimum concentration of TxB2 to be detected accurately in the plasma was 50 pg.ml. Cross reactivity with other prostaglandins was less than 0.005% except with PGD2 wherein the cross reactivity was 1%.
The plasma samples were initially assayed to give approximation of TxB2 content. The plasma was then appropriately diluted and re-assayed in duplicate to give final values.
The amount of TxB2 generated by collagen was calculated by subtracting mean values obtained for the saline stimulated platelets from the mean values obtained from the collagen stimulated platelets. The amount of TxB2 generated in the presence of each concentration of test compound was expressed as a % of control and dose response curves were constructed to determine the concentration of test compound which produced 50% inhibition.

[1] = test system: Thromboxane Formation (plasma TXB2); assay: Whole Blood Aggregation and Thromboxane Formation In Vivo: Guinea Pig (plasma TXB2 by RIA); details: oral (dose not given), ex vivo collagen-stimulated citrated whole blood, normalized to platelet count
Experimental: Whole Blood Aggregation and Thromboxane Formation In Vivo: Guinea Pig
All guinea pigs (albino male Dunkin-Bartley, 300-350 g) were fasted overnight before use in the test. The test compound was administered by oral dosing needle to conscious animals. All test compounds, if not water soluble, were administered formulated in a 50% PEG 400/50% carboxymethylcellulose mixture as solution or suspension. Oral dose volumes were 0.1 ml per 100 g body weight.
Animals were anaesthetized with pentabarbitone sodium (60 mg/kg) given intraperitoneally approximately 10 minutes before the bleed time. Once surgically anaesthetized, the peritoneal cavity was opened, and 4.5 ml blood was drawn into a syringe containing 0.5 ml 3.0% trisodium citrate (9:1 v/v) from the abdominal aorta via a 21/23 gauge butterfly needle. The blood was gently mixed with the citrate in the syringe, and transferred to a screwcap plastic tube. Animals were dosed and bled at one hour intervals.
Aggregation of the citrated guinea pig whole blood was carried out within 1-2 hours of bleeding, using standard whole blood aggregometry and counting technique. Aliquots (0.55 ml) of citrated whole blood were heated to 37° C. and stirred at 1000 RPM in an aggregometer. An initial 50 μl sample of blood was withdrawn for counting, collagen was added, and additional samples were withdrawn at 1, 2, 3 and 4 minutes. Aggregation was monitored by noting the decrease in single platelet count. Buffer (no collagen) control were included.
At the end of the four minute incubation for platelet counting, the remainder of each blood sample was allowed to stir for one additional minute. At 5 minutes, 1.0 μl of 19 mg/ml indomethacin (dissolved in dimethylsulfoxide) was added to each sample, resulting in a final indomethacin concentration of 30 ug/ml. The resulting solutions were mixed (15-30 seconds) and cooled on ice. Samples were centrifuged and 150 ul of plasma was removed. The plasma samples were frozen until radioimmunoassay for TXB2. The radioimmunoassay was conducted as previously described at plasma dilutions of 1:20. Two vehicle administered control aminals were run. Groups of at least four animals per test compound were utilized.
The raw results obtained in the RIA from a 0.1 ml sample of 1:20 diluted plasma were corrected to pg/ml in original plasma sample (×200). The R.I.A. values were then normalized for initial platelet count within the blood sample to 5.0×10^8 ml^-1 (range of platelet count in citrated guinea pig whole blood was varied between the limits […] ml^-1). The test and control results were then compared, and inhibition (%) calculated in the normal way. Statistical analysis is again by Student's t-test.

SMILES | IC50 (thromboxane synthetase) [µM] | % INHIBITION (plasma TXB2) [1] [%]
CCOC(=O)c1ccc(/C=C(\COCc2ccc(F)cc2)Cn2ccnc2)cc1 [13 (Z-isomer), ethyl 4-[2-[[(4-fluorophenyl)methoxy]-methyl]-3-(1H-imidazol-1-yl)-1Z-propenyl]benzoate] | 0.45 | -49.1
CCOC(=O)c1cccc(/C=C(/COCc2ccc(OC)cc2)Cn2ccnc2)c1 [9 (E-isomer), ethyl 3-[3-(1H-imidazol-1-yl)-2-[[(4-methoxyphenyl)methoxy)methyl]-1E-propenyl]-benzoate] | 403 | 
CCOC(=O)c1ccc(/C=C(\COCc2ccc(OC)cc2)Cn2ccnc2)cc1 [1 (Z-isomer), ethyl 4-[3-(1H-imidazol-1-yl)-2-[[(4-methoxyphenyl)methoxy]methyl]-1Z-propenyl]benzoate] | 0.022 | -45.5
CCOC(=O)c1ccc(/C=C(/COCc2ccc(OC)cc2)Cn2ccnc2)cc1OC [11 (E-isomer)] | 21.8 | -36.0
CCOC(=O)c1cccc(/C=C(\COCc2ccc(OC)cc2)Cn2ccnc2)c1 [9 (Z-isomer), ethyl 3-[3-(1H-imidazol-1-yl)-2-[[(4-methoxyphenyl)methoxy]methyl]-1Z-propenyl]benzoate] | 11.5 | 
CCOC(=O)c1ccc(/C=C(\CCCc2ccc(OC)cc2)Cn2ccnc2)cc1 [12 (E-isomer), ethyl 4-[2-[(1H-imidazol-1-yl)-methyl]-5-(4-methoxyphenyl)-1E-pentenyl]benzoate] | 0.15 | -92.3
CCOC(=O)c1ccc(/C=C(/COCc2ccc(OC)cc2)Cn2ccnc2)cc1 [1 (E-isomer), ethyl 4-[3-(1H-imidazol-1-yl)-2-[[(4-methoxyphenyl)methoxy]methyl]-1E-propenyl]benzoate] | 0.89 | 
CCOC(=O)c1ccc(/C=C(/COCc2ccc(OC)cc2)Cn2ccnc2)cc1Cl [10 (E-isomer)] | 4.78 | -18.6

Second part, led by results:

IC50 (thromboxane synthetase) [µM] | SMILES | % INHIBITION (plasma TXB2) [1] [%]
18.2 | COc1ccc(COC/C(=C/c2ccc(C(=O)O)cc2)Cn2ccnc2)cc1 [Example 2, 4-[3-(1H-imidazol-1-yl)-2-[[(4-methoxyphenyl)methoxy]methyl]-1E-propenyl]benzoic acid] | 
4.6 | COc1ccc(COCC(=CCCCCCC(=O)O)Cn2ccnc2)cc1 [Example 5, 9-(1H-Imidazol-1-yl)-8-[[(4-methoxyphenyl)methoxy]methyl]-7-nonenoic acid] | -4.0
0.56 | COc1ccc(COC/C(=C\c2ccc(C(=O)O)cc2)Cn2ccnc2)cc1 [Example 3, 4-[3-(1H-Imidazol-1-yl)-2-[[(4-methoxyphenyl)methoxy]methyl]-1Z-propenyl]benzoic acid] | 
1.4 | COc1ccc(COCC(=CCCCCC(=O)O)Cn2ccnc2)cc1 [Example 6, 8-(1H-Imidazol-1-yl)-7-[[(4-methoxyphenyl)methoxy]methyl]-6-octenoic acid] | 
17.3 | COc1ccc(C=C(COCc2ccc(OC)cc2)Cn2ccnc2)cc1 [Example 7, 1-[3-(4-Methoxyphenyl)-2-[[(4-methoxyphenyl)methoxy]methyl]-2-propenyl]-1H-imidazole] | 
9.3 | CCOC(=O)CCCCCC=C(COCc1ccc(OC)cc1)Cn1ccnc1 [Example 4, ethyl 9-(1H-imidazol-1-yl)-8-[[(4-methoxyphenyl)methoxy]methyl]-7-nonenoate] | 
1.8 | CCOC(=O)CCCCCC=C(CCCc1ccc(OC)cc1)Cn1ccnc1 [Example 8, Ethyl 8-[(1H-imidazol-1-yl)methyl]-11-(4-methoxyphenyl)-7-undecenoate] | 

Reference: patent US4837333A, “Substituted alkylidene imidazoles” (G. D. Searle & Co., priority 1987, dated 1989)
